{"source": "patent US7803930B2", "about": "“Antisense modulation of apolipoprotein B-expression” (Isis Pharmaceuticals, Inc., priority 2002, dated 2010)", "assay_type_in_all_cases": "in vivo, mouse", "key": {"[1]": {"assay": "High fat fed mice (Example 51): intact oligonucleotide in liver tissue by capillary gel electrophoresis", "conditions": "50 mg/kg i.p. twice weekly", "method": "(§1) In a further embodiment of the invention, the inhibition of apolipoprotein B mRNA in mice was compared to liver oligonucleotide concentration, total cholesterol, LDL-cholesterol and HDL-cholesterol. Male C57Bl/6 mice receiving a high fat diet (60% fat) were evaluated over the course of 6 weeks for the effects of treatment with twice weekly intraperitoneal injections of 50 mg/kg ISIS 147764 (SEQ ID NO: 109) or 50 mg/kg of the control oligonucleotide ISIS 141923 (SEQ ID NO: 858). Control animals received saline treatment. Animals were sacrificed after 2 days, 1, 2, 4 and 6 weeks of treatment. Each treatment group at each time point consisted of 8 mice.\n(§2) Target expression in liver was measured by real-time PCR as described by other examples herein and is expressed as percent inhibition relative to saline treated mice. Total, LDL- and HDL-cholesterol levels were measured by routine clinical analysis using an Olympus Clinical Analyzer (Olympus America Inc., Melville, N.Y.) and are presented in mg/dL. Results from saline-treated animals are shown for comparison. Intact oligonucleotide in liver tissue was measured by capillary gel electrophoresis and is presented as micrograms of oligonucleotide per gram of tissue.\n(§3) The oligonucleotide treatments described in this example were duplicated to investigate the extent to which effects of ISIS 147764 persist following cessation of treatment. Mice were treated as described, and sacrificed 1, 2, 4, 6 and 8 weeks following the cessation of oligonucleotide treatment."}, "PTEN": {"system": "PTEN", "assay": "ob/ob mice (Example 50): PTEN levels", "conditions": "high fat high cholesterol diet, 50 mg/kg i.p. twice a week, six weeks", "method": "Ob/ob mice receiving a high fat, high cholesterol diet (60% kcal fat supplemented with 0.15% cholesterol) were treated with one of several oligonucleotides to evaluate their effect on apolipoprotein B-related phenotypic endpoints in ob/ob mice. After overnight fasting, mice from each group were dosed intraperitoneally twice a week with 50 mg/kg of ISIS 147483 (SEQ ID NO: 79), or 147764 (SEQ ID NO: 109), or the controls ISIS 116847 (SEQ ID NO: 857), or 141923 (SEQ ID NO: 858), or saline for six weeks. At study termination and forty eight hours after the final injections, animals were sacrificed and evaluated for target mRNA levels in liver, cholesterol and triglyceride levels, liver enzyme levels, serum glucose levels, and PTEN levels."}, "[2]": {"assay": "High fat fed mice (Example 51): total, LDL- and HDL-cholesterol levels", "conditions": "50 mg/kg i.p. twice weekly", "method": "as §1, §2, §3"}, "[3]": {"assay": "Lean vs high fat fed C57BL/6 mice (Example 20): cholesterol, lipoprotein, triglyceride, liver enzyme and serum glucose levels", "conditions": "50 mg/kg i.p. every three days, six weeks", "method": "Male C57BL/6 mice were divided into two matched groups; (1) wild-type control animals (lean animals) and (2) animals receiving a high fat diet (60% kcal fat). Control animals received saline treatment and were maintained on a normal rodent diet. After overnight fasting, mice from each group were dosed intraperitoneally every three days with saline or 50 mg/kg ISIS 147764 (SEQ ID No: 109) for six weeks. At study termination and forty eight hours after the final injections, animals were sacrificed and evaluated for target mRNA levels in liver, cholesterol and triglyceride levels, liver enzyme levels and serum glucose levels."}, "[4]": {"assay": "High fat fed C57BL/6 mice, 6 week timecourse: serum AST and ALT levels", "conditions": "for ALT levels: 6 weeks (saline control 25 IU/L); for AST levels: 6 weeks (saline control 65 IU/L)", "method": "Male C57BL/6 mice (n=8) receiving a high fat diet (60% kcal fat) were evaluated over the course of 6 weeks for the effects of ISIS 147764 on liver enzyme (AST and ALT) levels. Increased levels of the liver enzymes ALT and AST indicate toxicity and liver damage. Control animals received saline treatment (50 mg/kg). […] AST and ALT levels were measured at 6 weeks."}, "[5]": {"assay": "High fat fed mice (Example 65): ALT and AST levels", "conditions": "10, 25 and 50 mg/kg", "method": "Male C57Bl/6 mice were divided into the following groups, consisting of 5 animals each: (1) mice on a lean diet, injected with saline (lean control); (2) mice on a high fat diet; (3) mice on a high fat diet injected with 50 mg/kg of the control oligonucleotide 141923 (SEQ ID NO: 858); (4) mice on a high fat diet given 20 mg/kg atorvastatin calcium (Lipitor®, Pfizer Inc.); (5) mice on a high fat diet injected with 10, 25 or 50 mg/kg ISIS 147764 (SEQ ID NO: 109). Saline and oligonucleotide treatments were administered intraperitoneally twice weekly for 6 weeks. Atorvastatin was administered daily for 6 weeks. At study termination, liver samples were isolated from each animal and RNA was isolated for Northern blot qualitative assessment, DNA microarray and quantitative real-time PCR. Northern blot assessment and quantitative real-time PCR were performed as described by other examples herein.\nMouse apolipoprotein B mRNA and serum cholesterol levels, measured as described herein, were evaluated to confirm antisense inhibition by ISIS 147764 and ISIS 147483. […] The 50 mg/kg dose of ISIS 147483 increased ALT and AST levels."}, "[6]": {"conditions": "high fat fed male C57Bl/6 mice, treatment period 1 week"}, "[7]": {"conditions": "high fat fed male C57Bl/6 mice, treatment period 2 weeks"}, "[8]": {"conditions": "high fat fed male C57Bl/6 mice, treatment period 4 weeks"}, "[9]": {"conditions": "high fat fed male C57Bl/6 mice, treatment period 6 weeks"}, "[10]": {"conditions": "high fat fed male C57Bl/6 mice, treatment period 2 days"}, "[11]": {"conditions": "high fat fed mice, 1 week after cessation of dosing"}, "[12]": {"conditions": "high fat fed mice, 2 weeks after cessation of dosing"}, "[13]": {"conditions": "high fat fed mice, 4 weeks after cessation of dosing"}, "[14]": {"conditions": "high fat fed mice, 6 weeks after cessation of dosing"}, "[15]": {"conditions": "high fat fed mice, 8 weeks after cessation of dosing"}, "[16]": {"conditions": "Lean-control group, C57BL/6 mice"}}, "note": "In the oligonucleotide strings, read from the 5' end, every base follows the letter of its sugar. An asterisk marks phosphorothioate; unmarked linkages are phosphodiester. Other units and linkages are bracketed, terminal groups are in braces. A string of capitals states the bases alone. e = 2'-O-(2-methoxyethyl) (MOE); [5mC] = 5-methylcytosine; d = 2'-deoxy (DNA)"}
{"substance": "147764 (eG*eT*e[5mC]*e[5mC]*e[5mC]*dT*dG*dA*dA*dG*dA*dT*dG*dT*d[5mC]*eA*eA*eT*eG*e[5mC]) [compound 147764]", "values": [{"measurement": "Intact oligonucleotide", "setting": "[1]; [6]", "result": 121, "unit": "µg/g"}, {"measurement": "Intact oligonucleotide", "setting": "[1]; [7]", "result": 194, "unit": "µg/g"}, {"measurement": "Intact oligonucleotide", "setting": "[1]; [8]", "result": 340, "unit": "µg/g"}, {"measurement": "Intact oligonucleotide", "setting": "[1]; [9]", "result": 586, "unit": "µg/g"}, {"measurement": "Intact oligonucleotide", "setting": "[1]; [10]", "result": 85, "unit": "µg/g"}, {"measurement": "Intact oligonucleotide", "setting": "[1]; [11]", "result": 215, "unit": "µg/g"}, {"measurement": "Intact oligonucleotide", "setting": "[1]; [12]", "result": 168, "unit": "µg/g"}, {"measurement": "Intact oligonucleotide", "setting": "[1]; [13]", "result": 124, "unit": "µg/g"}, {"measurement": "Intact oligonucleotide", "setting": "[1]; [14]", "result": 70, "unit": "µg/g"}, {"measurement": "Intact oligonucleotide", "setting": "[1]; [15]", "result": 43, "unit": "µg/g"}, {"measurement": "mRNA % control PTEN", "setting": "PTEN", "result": 115.3, "unit": "% control"}, {"measurement": "HDL-cholesterol", "setting": "[2]; [6]", "result": 107, "unit": "mg/dL"}, {"measurement": "LDL-cholesterol", "setting": "[2]; [6]", "result": 19, "unit": "mg/dL"}, {"measurement": "Total cholesterol", "setting": "[2]; [6]", "result": 128, "unit": "mg/dL"}, {"measurement": "HDL-cholesterol", "setting": "[2]; [7]", "result": 105, "unit": "mg/dL"}, {"measurement": "LDL-cholesterol", "setting": "[2]; [7]", "result": 14, "unit": "mg/dL"}, {"measurement": "Total cholesterol", "setting": "[2]; [7]", "result": 121, "unit": "mg/dL"}, {"measurement": "HDL-cholesterol", "setting": "[2]; [8]", "result": 66, "unit": "mg/dL"}, {"measurement": "LDL-cholesterol", "setting": "[2]; [8]", "result": 7, "unit": "mg/dL"}, {"measurement": "Total cholesterol", "setting": "[2]; [8]", "result": 75, "unit": "mg/dL"}, {"measurement": "HDL-cholesterol", "setting": "[2]; [9]", "result": 64, "unit": "mg/dL"}, {"measurement": "LDL-cholesterol", "setting": "[2]; [9]", "result": 7, "unit": "mg/dL"}, {"measurement": "Total cholesterol", "setting": "[2]; [9]", "result": 73, "unit": "mg/dL"}, {"measurement": "HDL-cholesterol", "setting": "[2]; [10]", "result": 76, "unit": "mg/dL"}, {"measurement": "LDL-cholesterol", "setting": "[2]; [10]", "result": 7, "unit": "mg/dL"}, {"measurement": "Total cholesterol", "setting": "[2]; [10]", "result": 101, "unit": "mg/dL"}, {"measurement": "HDL-cholesterol", "setting": "[2]; [11]", "result": 51, "unit": "mg/dL"}, {"measurement": "LDL-cholesterol", "setting": "[2]; [11]", "result": 14, "unit": "mg/dL"}, {"measurement": "Total cholesterol", "setting": "[2]; [11]", "result": 69, "unit": "mg/dL"}, {"measurement": "HDL-cholesterol", "setting": "[2]; [12]", "result": 49, "unit": "mg/dL"}, {"measurement": "LDL-cholesterol", "setting": "[2]; [12]", "result": 14, "unit": "mg/dL"}, {"measurement": "Total cholesterol", "setting": "[2]; [12]", "result": 67, "unit": "mg/dL"}, {"measurement": "HDL-cholesterol", "setting": "[2]; [13]", "result": 79, "unit": "mg/dL"}, {"measurement": "LDL-cholesterol", "setting": "[2]; [13]", "result": 18, "unit": "mg/dL"}, {"measurement": "Total cholesterol", "setting": "[2]; [13]", "result": 111, "unit": "mg/dL"}, {"measurement": "HDL-cholesterol", "setting": "[2]; [14]", "result": 100, "unit": "mg/dL"}, {"measurement": "LDL-cholesterol", "setting": "[2]; [14]", "result": 24, "unit": "mg/dL"}, {"measurement": "Total cholesterol", "setting": "[2]; [14]", "result": 138, "unit": "mg/dL"}, {"measurement": "HDL-cholesterol", "setting": "[2]; [15]", "result": 94, "unit": "mg/dL"}, {"measurement": "LDL-cholesterol", "setting": "[2]; [15]", "result": 21, "unit": "mg/dL"}, {"measurement": "Total cholesterol", "setting": "[2]; [15]", "result": 135, "unit": "mg/dL"}]}
{"substance": "GTCCCTGAAGATGTCAATGC (2'-MOE gapmer, further chemistry not given here) [ISIS 147764]", "values": [{"measurement": "Percent Change CHOL", "setting": "[3]; High Fat Group, C57BL/6 mice", "result": "−67", "unit": "%"}, {"measurement": "Percent Change GLUC", "setting": "[3]; High Fat Group, C57BL/6 mice", "result": "−28", "unit": "%"}, {"measurement": "Percent Change Lipoproteins HDL", "setting": "[3]; High Fat Group, C57BL/6 mice", "result": "−65", "unit": "%"}, {"measurement": "Percent Change Lipoproteins LDL", "setting": "[3]; High Fat Group, C57BL/6 mice", "result": "−87", "unit": "%"}, {"measurement": "Percent Change CHOL", "setting": "[3]; [16]", "result": "−63", "unit": "%"}, {"measurement": "Percent Change Lipoproteins HDL", "setting": "[3]; [16]", "result": "−44", "unit": "%"}, {"measurement": "Percent Change Lipoproteins LDL", "setting": "[3]; [16]", "result": "−64", "unit": "%"}, {"measurement": "Percent Change TRIG", "setting": "[3]; [16]", "result": "−34", "unit": "%"}, {"measurement": "changes in liver enzyme levels", "setting": "[3]; lean and high fat C57BL/6 mice", "result": "No significant changes"}, {"measurement": "ALT levels", "setting": "[4]; 5 mg/kg", "result": 50, "unit": "IU/L"}, {"measurement": "AST levels", "setting": "[4]; 5 mg/kg", "result": 105, "unit": "IU/L"}, {"measurement": "ALT levels", "setting": "[4]; 25 mg/kg", "result": 70, "unit": "IU/L"}, {"measurement": "AST levels", "setting": "[4]; 25 mg/kg", "result": 70, "unit": "IU/L"}, {"measurement": "ALT levels", "setting": "[4]; 50 mg/kg", "result": 100, "unit": "IU/L"}, {"measurement": "AST levels", "setting": "[4]; 50 mg/kg", "result": 80, "unit": "IU/L"}, {"measurement": "ALT or AST levels", "setting": "[5]", "result": "did not significantly elevate"}]}
